Experimental data reported in patent US20120101083A1, “S1P1 AGONISTS COMPRISING A BICYCLIC N-CONTAINING RING” (GLAXO GROUP LIMITED, priority 2009, published 2012).
pEC50: −log10 of the molar value.

Columns and labels:
[1] = target: T1, human Endothelial Differentiation Gene 1 (EDG1) (Homo sapiens, UniProt P21453); assay: S1P1 Tango assay, 384 well format; type: cell-based; details: EDG1-bla/U2OS cells
T1 construct: TEV protease cleavage site; Gal4-VP16 transcription factor (printed Ga14-VP16); expressed in transfected cells; host or cells: Tango GPCR-bla U2OS parental cell line (EDG1-bla/U2OS)
T1 sequence (P21453 whole entry, the tested form may be a part): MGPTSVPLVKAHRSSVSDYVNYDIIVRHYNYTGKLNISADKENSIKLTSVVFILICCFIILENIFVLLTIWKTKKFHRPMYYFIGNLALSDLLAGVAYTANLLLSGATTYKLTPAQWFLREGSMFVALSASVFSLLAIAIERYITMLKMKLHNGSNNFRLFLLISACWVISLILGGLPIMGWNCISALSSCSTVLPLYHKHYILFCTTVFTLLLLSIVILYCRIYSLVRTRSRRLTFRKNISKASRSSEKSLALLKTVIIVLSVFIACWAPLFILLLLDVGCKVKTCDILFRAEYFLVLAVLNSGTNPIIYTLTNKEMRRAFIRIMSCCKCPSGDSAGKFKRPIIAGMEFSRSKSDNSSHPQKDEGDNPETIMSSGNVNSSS
Description: S1P1 Tango Assay—384 Well Format
Recombinant EDG1-bla/U2OS cells (contain the human Endothelial Differentiation Gene 1 (EDG1) linked to a TEV protease site and a Ga14-VP16 transcription factor stably integrated into the Tango GPCR-bla U20S parental cell line) were harvested from growth medium and passaged into assay medium (Invitrogen Freestyle Expression Medium). The cells were starved for 24 hours at 37° C., 5% CO2, harvested and resuspended in assay medium at a density of ˜200,000 cells/ml. All test compounds were dissolved in DMSO at a concentration of 10 mM and were prepared in 100% DMSO to provide 10 point dose response curves. Test compounds prepared by Bravo (Velocity11) were added to wells in columns 2-11 and 13-22; DMSO was added to wells in columns 12 and 23 as unstimulated controls and assay medium was added to wells in columns 1 and 24 as cell-free controls. […]
10 μl of 6× substrate mixture (LiveBLAzer™-FRET B/G substrate (CCF4-AM) Cat # K1096 from Invitrogen, Inc.) was added to each well using Bravo and the plates incubated at room temperature for 2 h in the dark. The plate was finally read on EnVision using one excitation channel (409 nm) and two emission channels (460 nm and 530 nm).
The blue/green emission ratio (460 nm/530 nm) was calculated for each well, by dividing the background-subtracted Blue emission values by the background-subtracted Green emission values. […]

[2] = target: T2, human Endothelial Differentiation G-protein Coupled Receptor 3 (EDG3) (Homo sapiens, UniProt Q99500); assay: S1P3 GeneBlazer assay; type: cell-based; details: EDG3-Ga15-NFAT-bla HEK 293T cells
T2 construct: expressed in transfected cells; host or cells: GeneBLAzer Ga15-NFAT-bla HEK 293T cell line
T2 sequence (Q99500 whole entry): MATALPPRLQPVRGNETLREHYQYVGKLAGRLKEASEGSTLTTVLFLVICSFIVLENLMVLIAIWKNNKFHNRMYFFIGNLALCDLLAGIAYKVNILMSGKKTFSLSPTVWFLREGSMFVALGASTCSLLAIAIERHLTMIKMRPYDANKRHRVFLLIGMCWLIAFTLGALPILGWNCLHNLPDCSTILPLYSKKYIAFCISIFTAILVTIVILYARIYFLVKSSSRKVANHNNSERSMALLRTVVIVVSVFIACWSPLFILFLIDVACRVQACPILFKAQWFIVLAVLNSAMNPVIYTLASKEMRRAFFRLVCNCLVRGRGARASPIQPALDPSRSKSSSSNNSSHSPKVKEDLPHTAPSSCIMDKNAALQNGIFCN
Description: GeneBLAzer EDG3-Ga15-NFAT-bla HEK 293T cells (contain the human Endothelial Differentiation G-protein Coupled Receptor 3 (EDG3) and a beta-lactamase reporter gene under control of a NFAT response element and a promiscuous G Protein, Ga15, stably integrated into the GeneBLAzer Ga15-NFAT-bla HEK 293T cell line) were suspended in assay medium (99% DMEM, 1% Dialyzed FBS, 0.1 mM NEAA, 25 mM HEPES (pH 7.3), 100 U/ml penicillin, 100 μg/ml streptomycin) at a density of 312, 500 cells/ml. Add 100 μl/well of the assay medium to the cell-free control wells (column 12) and 100 μl/well of the cell suspension to the test compound wells (row 2-8, column 1-10), the unstimulated control wells (DMSO) (column 11), and stimulated control wells (S1P) (row 1, column 1-10) in a Corning black-well, clear bottom 96-well plate. Cells were incubated at 37° C., 5% CO2 for 24 h. […]
After incubation at 37° C., 5% CO2 for 5 h, 25 μl of 6× substrate mixture (6 μl Solution A (1 mg LiveBLAzer™-FRET B/G Substrate (CCF4-AM) in 912 μl DMSO) plus 60 μl Solution B plus 934 μl Solution C) was added to each well and incubate at room temperature for 2 h in dark. The plate was finally read on EnVision for two emission channels (460 nm and 530 nm). […]

circulating lymphocytes = details: animals and man; cited from earlier work
[3] = clinical studies, first 24 hours of treatment; cited from earlier work

Row | Compound | pEC50 [1] | pEC50 [2] | circulating lymphocytes (circulating lymphocytes) | bradycardia [3]
1 | CCc1c(-c2cnc(-c3ccc(OC(C)C)c(C#N)c3)s2)ccc2c1CCN(C(CO)CO)C2 [Example 204, 5-(5-{5-ethyl-2-[2-hydroxy-1-(hydroxymethyl)ethyl]-1,2,3,4-tetrahydro-6-isoquinolinyl}-1,3-thiazol-2-yl)-2-[(1-methylethyl)oxy]benzonitrile] | > 6.00 | < 5.00 | – | –
2 | CCc1c(-c2nnc(-c3ccc(OC(C)C)c(C#N)c3)s2)ccc2c1CCN(C(CO)CO)C2 [Example 205, 5-(5-{5-ethyl-2-[2-hydroxy-1-(hydroxymethyl)ethyl]-1,2,3,4-tetrahydro-6-isoquinolinyl}-1,3,4-thiadiazol-2-yl)-2-[(1-methylethyl)oxy]benzonitrile] | > 7.00 | < 5.00 | – | –
3 | CCCCCCCCc1ccc(CCC(N)(CO)CO)cc1 [FTY720] | – | – | reduce circulating lymphocytes in animals and man | bradycardia in the first 24 hours of treatment
